Results reported in PMC3699650, “Structural Insights into the Abscisic Acid Stereospecificity by the ABA Receptors PYR/PYL/RCAR” (PLoS ONE, 2013).

How the values were obtained:
PYL9 (with HAB1) [1] = biological target: T1, PYL9 (with HAB1) (Arabidopsis thaliana, UniProt Q84MC7); assay: HAB1 phosphatase inhibition assay; format: biochemical; details: Hepes pH 7.5, 30 °C
T1 construct: PYL9 from E. coli BL21(DE3), pET-28a or pGEX-4T-2 (TEV site), IMAC and SEC, monomer; HAB1 residues 169-511, GST cut by TEV; with Protein phosphatase 2C 16
T1 sequence (Q84MC7 1-187): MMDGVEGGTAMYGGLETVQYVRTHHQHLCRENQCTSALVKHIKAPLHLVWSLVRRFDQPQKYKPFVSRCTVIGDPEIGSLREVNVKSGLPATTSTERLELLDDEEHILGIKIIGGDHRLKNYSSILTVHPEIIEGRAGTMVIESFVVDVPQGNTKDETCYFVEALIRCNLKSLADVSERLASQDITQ
T1 sequence (Q9CAJ0 169-511 partner): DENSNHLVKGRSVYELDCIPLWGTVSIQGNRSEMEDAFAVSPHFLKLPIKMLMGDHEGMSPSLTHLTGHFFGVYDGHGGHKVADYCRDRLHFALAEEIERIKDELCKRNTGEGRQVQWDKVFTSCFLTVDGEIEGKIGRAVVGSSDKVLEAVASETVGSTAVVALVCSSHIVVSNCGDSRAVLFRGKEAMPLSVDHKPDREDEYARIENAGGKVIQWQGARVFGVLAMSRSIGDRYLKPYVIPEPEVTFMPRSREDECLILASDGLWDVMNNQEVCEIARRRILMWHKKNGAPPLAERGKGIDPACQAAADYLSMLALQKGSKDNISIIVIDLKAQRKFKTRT

PYL10 (with HAB1) = biological target: T2, PYL10 (with HAB1) (Arabidopsis thaliana, UniProt Q8H1R0); assay: HAB1 phosphatase inhibition assay (phosphopeptide, molybdate); format: biochemical
T2 construct: PYL10 from E. coli BL21(DE3), pET-28a or pGEX-4T-2 (TEV site), IMAC and SEC; HAB1 residues 169-511, GST cut by TEV; with Protein phosphatase 2C 16
T2 sequence (Q8H1R0 1-183): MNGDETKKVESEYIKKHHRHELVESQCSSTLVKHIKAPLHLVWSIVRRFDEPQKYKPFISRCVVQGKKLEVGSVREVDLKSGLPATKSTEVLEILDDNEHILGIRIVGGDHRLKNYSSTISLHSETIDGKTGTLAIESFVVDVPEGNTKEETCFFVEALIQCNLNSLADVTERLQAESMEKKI
T2 sequence (Q9CAJ0 169-511 partner): T1 sequence (Q9CAJ0 169-511 partner)

PYL3 = biological target: T3, PYL3 (Arabidopsis thaliana, UniProt Q9SSM7); assay: isothermal titration calorimetry; format: binding; details: 20 °C, 20 mM Tris-HCl pH 8.0, 150 mM NaCl; 0.3 mM (−)-ABA into 0.22 mM PYL3
T3 construct: apo mainly dimer
T3 sequence (Q9SSM7 1-209): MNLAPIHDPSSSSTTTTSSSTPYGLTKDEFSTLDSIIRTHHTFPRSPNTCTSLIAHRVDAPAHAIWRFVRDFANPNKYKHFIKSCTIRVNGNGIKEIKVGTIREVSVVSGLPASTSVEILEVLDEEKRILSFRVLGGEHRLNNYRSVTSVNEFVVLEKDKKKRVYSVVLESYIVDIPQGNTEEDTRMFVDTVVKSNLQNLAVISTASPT

PYL9 (with HAB1) [2] = biological target: T1, PYL9 (with HAB1); assay: HAB1 phosphatase inhibition assay (phosphopeptide, molybdate); format: biochemical
PYL4 (with HAB1) = biological target: T4, PYL4 (with HAB1) (Arabidopsis thaliana, UniProt O80920); assay: as above; format: biochemical
T4 construct: PYL4 from E. coli BL21(DE3), pET-28a or pGEX-4T-2 (TEV site), IMAC and SEC; HAB1 residues 169-511, GST cut by TEV; with Protein phosphatase 2C 16
T4 sequence (O80920 1-207): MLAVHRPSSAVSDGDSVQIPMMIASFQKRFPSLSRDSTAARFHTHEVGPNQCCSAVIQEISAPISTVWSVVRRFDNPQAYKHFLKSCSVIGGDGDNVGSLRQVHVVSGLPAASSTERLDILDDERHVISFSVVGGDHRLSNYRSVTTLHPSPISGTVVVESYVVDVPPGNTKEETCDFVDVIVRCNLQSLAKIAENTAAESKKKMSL
T4 sequence (Q9CAJ0 169-511 partner): T1 sequence (Q9CAJ0 169-511 partner)

PYL5 (with HAB1) = biological target: T5, PYL5 (with HAB1) (Arabidopsis thaliana, UniProt Q9FLB1); assay: as above; format: biochemical
T5 construct: PYL5 from E. coli BL21(DE3), pET-28a or pGEX-4T-2 (TEV site), IMAC and SEC, monomer; HAB1 residues 169-511, GST cut by TEV; with Protein phosphatase 2C 16
T5 sequence (Q9FLB1 1-203): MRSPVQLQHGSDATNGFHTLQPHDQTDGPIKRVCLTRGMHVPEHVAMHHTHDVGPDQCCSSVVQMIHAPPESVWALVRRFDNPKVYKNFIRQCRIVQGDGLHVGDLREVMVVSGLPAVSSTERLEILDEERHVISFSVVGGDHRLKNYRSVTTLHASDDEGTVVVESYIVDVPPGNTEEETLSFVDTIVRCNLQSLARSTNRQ
T5 sequence (Q9CAJ0 169-511 partner): T1 sequence (Q9CAJ0 169-511 partner)

PYL1 (with HAB1) = biological target: T6, PYL1 (with HAB1) (Arabidopsis thaliana, UniProt Q8VZS8); assay: as above; format: biochemical
T6 construct: PYL1 from E. coli BL21(DE3), pET-28a or pGEX-4T-2 (TEV site), IMAC and SEC; HAB1 residues 169-511, GST cut by TEV; with Protein phosphatase 2C 16
T6 sequence (Q8VZS8 2-221): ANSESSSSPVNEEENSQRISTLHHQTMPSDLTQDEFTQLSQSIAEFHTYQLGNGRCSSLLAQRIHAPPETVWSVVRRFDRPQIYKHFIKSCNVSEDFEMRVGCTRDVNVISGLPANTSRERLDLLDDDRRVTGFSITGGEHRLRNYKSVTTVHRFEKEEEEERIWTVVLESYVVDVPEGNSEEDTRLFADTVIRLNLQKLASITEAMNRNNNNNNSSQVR
T6 sequence (Q9CAJ0 169-511 partner): T1 sequence (Q9CAJ0 169-511 partner)

PYL8 (with HAB1) = biological target: T7, PYL8 (with HAB1) (Arabidopsis thaliana, UniProt Q9FGM1); assay: as above; format: biochemical
T7 construct: PYL8 from E. coli BL21(DE3), pET-28a or pGEX-4T-2 (TEV site), IMAC and SEC; HAB1 residues 169-511, GST cut by TEV; with Protein phosphatase 2C 16
T7 sequence (Q9FGM1 1-188): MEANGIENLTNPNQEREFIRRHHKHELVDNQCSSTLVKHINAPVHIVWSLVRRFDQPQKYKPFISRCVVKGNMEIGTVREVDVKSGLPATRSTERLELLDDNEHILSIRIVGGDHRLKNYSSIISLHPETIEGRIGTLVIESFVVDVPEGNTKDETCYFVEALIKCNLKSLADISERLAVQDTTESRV
T7 sequence (Q9CAJ0 169-511 partner): T1 sequence (Q9CAJ0 169-511 partner)

PYL2 (with HAB1) = biological target: T8, PYL2 (with HAB1) (Arabidopsis thaliana, UniProt O80992); assay: as above; format: biochemical
T8 construct: PYL2 from E. coli BL21(DE3), pET-28a or pGEX-4T-2 (TEV site), IMAC and SEC; HAB1 residues 169-511, GST cut by TEV; with Protein phosphatase 2C 16
T8 sequence (O80992 1-190): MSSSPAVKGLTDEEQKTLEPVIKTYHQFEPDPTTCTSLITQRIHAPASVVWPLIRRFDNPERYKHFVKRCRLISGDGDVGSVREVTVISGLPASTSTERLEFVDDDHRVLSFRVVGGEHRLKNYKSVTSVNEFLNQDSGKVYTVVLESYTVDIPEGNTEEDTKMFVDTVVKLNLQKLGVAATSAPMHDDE
T8 sequence (Q9CAJ0 169-511 partner): T1 sequence (Q9CAJ0 169-511 partner)

PYL6 (with HAB1) = biological target: T9, PYL6 (with HAB1) (Arabidopsis thaliana, UniProt Q8S8E3); assay: as above; format: biochemical
T9 construct: PYL6 from E. coli BL21(DE3), pET-28a or pGEX-4T-2 (TEV site), IMAC and SEC; HAB1 residues 169-511, GST cut by TEV; with Protein phosphatase 2C 16
T9 sequence (Q8S8E3 1-215): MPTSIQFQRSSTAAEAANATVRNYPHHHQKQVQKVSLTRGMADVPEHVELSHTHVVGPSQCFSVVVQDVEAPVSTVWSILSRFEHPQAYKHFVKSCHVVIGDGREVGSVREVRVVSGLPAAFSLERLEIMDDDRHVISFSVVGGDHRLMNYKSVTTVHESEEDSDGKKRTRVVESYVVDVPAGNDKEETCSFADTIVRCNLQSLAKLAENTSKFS
T9 sequence (Q9CAJ0 169-511 partner): T1 sequence (Q9CAJ0 169-511 partner)

PYR1 (with HAB1) = biological target: T10, PYR1 (with HAB1) (Arabidopsis thaliana, UniProt O49686); assay: as above; format: biochemical
T10 construct: PYR1 from E. coli BL21(DE3), pET-28a or pGEX-4T-2 (TEV site), IMAC and SEC; HAB1 residues 169-511, GST cut by TEV; with Protein phosphatase 2C 16
T10 sequence (O49686 1-191): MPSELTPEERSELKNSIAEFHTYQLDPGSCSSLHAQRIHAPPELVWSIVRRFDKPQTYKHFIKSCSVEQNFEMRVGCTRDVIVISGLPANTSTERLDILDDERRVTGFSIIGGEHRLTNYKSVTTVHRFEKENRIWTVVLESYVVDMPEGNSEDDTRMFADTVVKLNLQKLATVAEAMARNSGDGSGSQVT
T10 sequence (Q9CAJ0 169-511 partner): T1 sequence (Q9CAJ0 169-511 partner)

| SMILES | HAB1 phosphatase inhibition assay (PYL9 (with HAB1) [1]) | IC50 (PYL10 (with HAB1)) | binding affinity (PYL3) | IC50 (PYL9 (with HAB1) [2]) | IC50 (PYL4 (with HAB1)) | IC50 (PYL5 (with HAB1)) | IC50 (PYL1 (with HAB1)) | IC50 (PYL8 (with HAB1)) | IC50 (PYL2 (with HAB1)) | IC50 (PYL6 (with HAB1)) | IC50 (PYR1 (with HAB1)) |
| --- | --- | --- | --- | --- | --- | --- | --- | --- | --- | --- | --- |
| CC1=CC(=O)CC(C)(C)[C@@]1(O)/C=C/C(C)=C/C(=O)O [(+)-ABA] | PYL9 can inhibit HAB1 in the presence of (+)-ABA |  |  |  |  |  |  |  |  |  |  |
| CC1=CC(=O)CC(C)(C)[C@]1(O)/C=C/C(C)=C\C(=O)O [(−)-ABA] |  | 15 µM | ITC results showed that the binding affinity of (−)-ABA to PYL3 was less | > 10 µM | 0.48 µM | 0.17 µM | 3.1 µM | 1.6 µM | 2.5 µM | 0.47 µM | 4.5 µM |
